The record followed here is ChEMBL document CHEMBL1221362, “Dialkylaminoalkyl derivatives of bicyclic compounds with antiplasmodial activity” (Bioorg Med Chem, 2010).

SMILES strings stand for the structures.

For orientation: IC50 means the concentration needed to halve the response being measured.

The nature of data set [1]: Selectivity index, ratio of IC50 for rat L6 cells to IC50 for Plasmodium falciparum K1. It counts as toxicity, cell-based. The conditions noted are these: read-out: Ratio IC50.
The test system of data set [2] is Plasmodium berghei. As to the kind of experiment: Antimalarial activity against Plasmodium berghei ANKA infected in albino mice (Mus musculus) assessed as reduction in parasitemia at 50 mg/kg, intraperitoneal for 4 days. Format: functional. Also noted: scale not given: the % may be the effect or the level left.
The subject of another data set is Plasmodium falciparum. As to the kind of experiment: Antiplasmodial activity against Plasmodium falciparum K1 infected in human blood by [3H]hypoxanthine incorporation assay. It counts as functional, organism-based.
In another data set the test system is L6. Put plainly: Cytotoxicity against rat L6 cells. It counts as cell-based.
For data set [3], the system named is Mus musculus. As to the kind of experiment: Toxicity in albino mouse assessed as mean survival days at 50 mg/kg, ip for 4 days. Set-up: dose 50 mg/kg, route intraperitoneal. The conditions noted are these: in vivo, 96 h. Format: organism-based.
Data set [4] deals with Mus musculus. Put plainly: Toxicity in albino mouse assessed as mean survival days at 30 mg/kg, ip for 4 days. It counts as organism-based. Set-up: dose 30 mg/kg, route intraperitoneal. The conditions noted are these: in vivo, 96 h.
For data set [5], the system named is Plasmodium berghei. As to the kind of experiment: Antimalarial activity against Plasmodium berghei ANKA infected in albino mice (Mus musculus) assessed as reduction in parasitemia at 30 mg/kg, intraperitoneal for 4 days. Set-up: scale not given: the % may be the effect or the level left. Format: functional.
Data set [6] relates to Mus musculus. Put plainly: Toxicity in albino mouse assessed as mean survival days at 10 mg/kg, ip for 4 days. It counts as organism-based. Set-up: dose 10 mg/kg, route intraperitoneal. The settings on record: in vivo, 96 h.

Consider `O=C(CCN1CCCCC1)N1CCC2(N3CCCCC3)CC(c3ccccc3)C1C(c1ccccc1)C2` (racemic), for which the selectivity ratio in data set [1] turned out to be 336. In addition, the Activity with Plasmodium berghei [2] stood at 36.5%. Besides, the results for the IC50 with Plasmodium falciparum and in the data set with L6 were 190 nM and 63900 nM, respectively. Moreover, the MSD with Mus musculus [3] came out at 6 days.

Turning to `CN(C)C12CCN(C(=O)CCN3CCCCC3)C(C(c3ccccc3)C1)C(c1ccccc1)C2` (racemic), in data set [1], the selectivity ratio turned out to be 120. Besides, the IC50 with Plasmodium falciparum was found to be 1070 nM; in the data set with L6 it was 128000 nM.

For `c1ccc(C2CC3(N4CCCCC4)CCN(CCCN4CCCCC4)C2C(c2ccccc2)C3)cc1` (racemic), in data set [1], the selectivity ratio is 1150. Besides, in the data set with Plasmodium berghei [2], the Activity is on record as 30.4%. Moreover, the IC50 in the data set on Plasmodium falciparum was 120 nM; in the data set with L6 it was 138000 nM. In the data set on Mus musculus [3], the MSD was 8 days.

For `CN(C)C12CCN(CCCN3CCCCC3)C(C(c3ccccc3)C1)C(c1ccccc1)C2` (racemic), the selectivity ratio in data set [1] turned out to be 162. The IC50 was determined as 360 nM in the data set with Plasmodium falciparum and 58400 nM with L6.

On to `O=C(CN1CCCC1)NC1CC2(N3CCCCC3)CC(c3ccccc3)C1C(c1ccccc1)C2` (stereo unspecified), for which, in data set [1], the selectivity ratio came out at 191. Besides, the IC50 in the data set on Plasmodium falciparum amounted to 110 nM; in the data set on L6, 21000 nM.

Regarding `c1ccc(C2CC3(N4CCCC4)CCN(CCN4CCCC4)C2C(c2ccccc2)C3)cc1` (stereo unspecified), in data set [1], the selectivity ratio was 116.

As for `C[C@@H]1CC[C@H]2[C@@H](C)C(=O)O[C@@H]3O[C@@]4(C)CC[C@@H]1[C@]32OO4` [ARTEMISININ], in the data set with Plasmodium falciparum, the IC50 came to 6.4 nM.

Consider `c1ccc(C2CC3(N4CCCC4)CCN(CCCN4CCCCC4)C2C(c2ccccc2)C3)cc1` (racemic), for which the selectivity ratio in data set [1] was 287. The IC50 in the data set on Plasmodium falciparum came out at 100 nM; in the data set on L6, 28700 nM. Also, the MSD in the data set with Mus musculus [4] was 7 days. Moreover, the Activity in the data set on Plasmodium berghei [5] is 31%.

On to `CN(C)C12CCN(CCN3CCCC3)C(C(c3ccccc3)C1)C(c1ccccc1)C2` (stereo unspecified), for which, in data set [1], the selectivity ratio was 136.

Turning to `CCN1CCN(CCN2CCC3(N4CCCCC4)CC(c4ccccc4)C2C(c2ccccc2)C3)CC1` (racemic), the selectivity ratio in data set [1] is 482. The 50% inhibitory concentration (IC50) was 140 nM in the data set with Plasmodium falciparum and 67500 nM with L6. In addition, the MSD in the data set on Mus musculus [4] is 7 days. For the same compound, in the data set on Plasmodium berghei [5], the Activity stood at 0%.

For `O=C(CCN1CCCCC1)N1CCC2(N3CCCC3)CC(c3ccccc3)C1C(c1ccccc1)C2` (racemic), the selectivity ratio in data set [1] was determined as 300. For the same compound, the IC50 came out at 360 nM in the data set with Plasmodium falciparum and 108000 nM in the data set with L6. The MSD with Mus musculus [4] amounted to 6.7 days. Also, the Activity with Plasmodium berghei [5] was found to be 27.2%.

As for `CCN1CCN(CCN2CCC3(N4CCCC4)CC(c4ccccc4)C2C(c2ccccc2)C3)CC1` (racemic), the selectivity ratio in data set [1] is 298. The figures for the IC50 in the data set with Plasmodium falciparum and in the data set on L6 were 180 nM and 53600 nM, respectively. In addition, the MSD with Mus musculus [4] stood at 7 days. In addition, the Activity in the data set with Plasmodium berghei [5] amounted to 8.9%.

Consider `CCN1CCN(CCN2CCC3(N(C)C)CC(c4ccccc4)C2C(c2ccccc2)C3)CC1` (racemic), for which, in data set [1], the selectivity ratio worked out at 170. Moreover, the concentration for half-maximal inhibition (IC50) in the data set on Plasmodium falciparum was found to be 340 nM; with L6 it was 58000 nM.

`CCN(CC)CCCC(C)Nc1ccnc2cc(Cl)ccc12` (stereo unspecified) [CHLOROQUINE]: in the data set with Mus musculus [6], the MSD came to 20 days.
